Values quoted from earlier work as cited in patent US20090018125A1, “Pharmaceutical Composition and Its Use” (Tillotts Pharma AG, priority 2004, published 2009).

System: human squamous carcinoma line and multidrug-resistant and carboplatin-resistant variants
Conditions: cells pre-treated with GLA

CCCCC/C=C\C/C=C\C/C=C\CCCCC(=O)O [GLA, gamma-linoleic acid]
enhancement of vincristine toxicity: up to 40%
enhancement of toxicity of carboplatin (depending on GLA concentration, human squamous carcinoma and carboplatin-resistant variant cell lines): ≥ 50%
